According to paper PMC9007350, “Aurintricarboxylic acid is a canonical disruptor of the TAZ-TEAD transcriptional complex” (PLoS ONE, 2022):
Read-outs that look alike come from different tables or passages of the source.

Key:
NIH3T3 cells = assay: LDH cytotoxicity assay, NIH3T3; type: cell-based; conditions: NIH3T3, concentrations used in soft agar assay
Procedure: (§1) Soft agar colony growth assay was performed as previously described. The colonies were counted using Image-Pro Plus 7.0 software (Media Cybernetics). ATA cytotoxicity was assessed using the CyQUANT LDH Cytotoxicity Assay Kit (ThermoFisher) and was performed as per the manufacturer’s protocol.
NIH3T3 and HEK293 cells were treated with the indicated concentrations of ATA and the cytotoxicity was evaluated by calculating the amount of intracellular LDH released into the media. LDH absorbance after complete cell lysis is considered as 100% cytotoxicity and the absorbance after ATA treatment was normalized accordingly. (TIF) Click here for additional data file.

[1] = target: T1, TAZ-TEAD complex (human TAZ (23-57) probe, human TEAD4 (217-434)) (Homo sapiens, UniProt Q15561); assay: TAZ-TEAD fluorescence polarization assay; type: binding; conditions: TEAD4 350 nM, probe 25 nM
T1 construct: made in house
T1 sequence (Q15561 217-434, one chain of several): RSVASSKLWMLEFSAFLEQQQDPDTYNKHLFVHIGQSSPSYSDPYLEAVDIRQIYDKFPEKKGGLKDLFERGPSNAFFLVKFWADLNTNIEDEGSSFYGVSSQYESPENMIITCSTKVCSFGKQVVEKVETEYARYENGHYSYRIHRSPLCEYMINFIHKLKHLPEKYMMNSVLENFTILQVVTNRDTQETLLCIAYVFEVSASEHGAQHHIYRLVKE
Procedure: Human YAP (61–100), human TAZ (23–57) and mouse Vgll1 (26–51) peptide probes were used; all the probes had carboxyfluorescein labels. Human TEAD4 (217–434) was used in the assay at a concentration of 350 nM and the peptide probe concentration was 25 nM. Disruptors were titrated at concentrations ranging from 0–150 μM to the probe-TEAD complex, and the mixtures were incubated at 25°C for 20 min. Then, polarization measurements were taken using a Victor3 (PerkinElmer) plate reader.

[2] = test system: NIH3T3 expressing TAZ S89A; assay: Soft agar colony growth assay, TAZ S89A; type: cell-based
Procedure: as §1

Which “cytotoxicity, LDH release” value (NIH3T3 cells) does the source give for O=C(O)C1=CC(=C(c2ccc(O)c(C(=O)O)c2)c2ccc(O)c(C(=O)O)c2)C=CC1=O [ATA, aurintricarboxylic acid] here?
Its value is “did not show cytotoxicity”.

What about the IC50 ([1]; acylated TEAD, read-out: IC50, TAZ-TEAD FP assay, acylated TEAD) of the same compound?
The IC50 was 68 µM.

What about the IC50 ([1]; deacylated TEAD, read-out: IC50, TAZ-TEAD FP assay, deacylated TEAD) of the same compound?
Its IC50 is 72 µM.

What about the “soft agar growth driven by TAZ S89A” value [2] of the same compound?
The value was “inhibited soft agar growth”.
